Experimental data as given in patent publication US6455575B2, “Phosphonooxymethyl ethers of taxane derivatives” (Bristol-Myers Squibb Company, priority 1992, dated 2002).

Columns and labels:
[1] = system: HCT-116 human colon carcinoma; experiment: HCT-116 human tumor xenograft model; assay type: in vivo; details: for cures (tumor-free on Day 80 post tumor implant): athymic mice, every other day x5
M109 lung carcinoma [2] = experiment: In vivo antitumor activity, subcutaneous M109 model; design: species or system mice; details: for T-C / max. % T/C: once daily x5 from Day 4
[3] = system: HCT-116/VM46 human colon carcinoma cells; experiment: In vitro cytotoxicity, XTT assay, multi-drug resistant line; assay type: cell-based; details: 72 h incubation, teniposide-selected, paclitaxel-resistant cells, Examples 1 and 4 as free acid, example 3 as sodium salt
[4] = system: HCT-116 human colon carcinoma cells; experiment: In vitro cytotoxicity, XTT assay; assay type: cell-based; details: 72 h incubation, Examples 1 and 4 as free acid, example 3 as sodium salt
M109 lung carcinoma [5] = experiment: Mice M109 model, intraperitoneal implant; assay type: in vivo; details: ip M109, ip injections, d. 5 + 9, median survival
Experimental: Balb/c x DBA/2 F1 hybrid mice were implanted intraperitoneally, as described by William Rose in Evaluation of Madison 109 Lung Carcinoma as a Model for Screening Antitumor Drugs, Cancer Treatment Reports, 65, No. 3-4 (1981), with 0.5 mL of a 2% (w/v) brei of M109 lung carcinoma.
Mice were treated with compound under study by receiving intraperitoneal injections of various doses on either days 1, 5 and 9 post-tumor implant or days 5 and 8 post-implant. Mice were followed daily for survival until approximately 75 -90 days post-tumor implant. One group of mice per experiment remained untreated and served as the control group. Median survival times of compound-treated (T) mice were compared to the median survial time of the control (C) mice. The ratio of the two values for each compound-treated group of mice was multiplied by 100 and expressed as a percentage (i.e. % T/C) in Table III for representative compounds of formula (B′).

[6] = system: A2780/cDDP human ovarian carcinoma resistant to cisplatin; experiment: A2780/cDDP human tumor xenograft model; assay type: in vivo; details: athymic mice, every other day x5
[7] = iv, 36 mg/kg/inj, Example 3 as triethanolamine salt
[8] = another M109 experiment, triethanolamine salt, iv, 48 mg/kg/inj.
[9] = another M109 experiment, triethanolamine salt, orally, 200 mg/kg/adm.
[10] = one M109 experiment, triethanolamine salt, iv in water, 36 mg/kg/inj.
[11] = one M109 experiment, triethanolamine salt, orally, 160 mg/kg/adm.
[12] = another M109 experiment, iv, 48 or 36 mg/kg/inj.
[13] = one M109 experiment, iv, 36 or 18 mg/kg/inj.
[14] = sc M109, i.v. once daily days 5-9, opt. dose 18 mg/kg/inj

7-O-phosphonooxymethylpaclitaxel [Example 1]
oral activity in the HCT-116 model ([1]; triethanolamine salt, oral): oral activity
Maximum Effect T-C (M109 lung carcinoma [2]; sc M109, CDF1 mice, sodium salt, i.v. once daily days 4-8, opt. dose 45 mg/kg/inj, delay to 1 gm tumor): 14.0 days
Maximum Effect % T/C (M109 lung carcinoma [2]; sc M109, CDF1 mice, sodium salt, i.v. once daily days 4-8 post-tumor implant, opt. dose 45 mg/kg/inj, median survival): 131%
oral activity in the M109 model (M109 lung carcinoma [2]; triethanolamine salt, oral): oral activity
IC50 [3]: 1.24 µM
IC50 [4]: 0.0158 µM

CSCO[C@H]1C[C@H]2OC[C@@]2(OC(C)=O)[C@H]2[C@H](OC(=O)c3ccccc3)[C@]3(O)C[C@H](OC(=O)[C@H](O)[C@@H](NC(=O)OC(C)(C)C)c4ccccc4)C(C)=C([C@@H](OC(C)=O)C(=O)[C@]12C)C3(C)C [14 (b), 3′-N-debenzoyl-3′-N-(t-butoxycarbonyl)-7-O-methylthiomethylpaclitaxel]
T/C (mg/kg/inj.; schedule in days) (M109 lung carcinoma [5]; 12 mg/kg/inj.): 143 (12; d. 5 + 9) %

CSCO[C@H]1C[C@H]2OC[C@@]2(OC(C)=O)[C@H]2[C@H](OC(=O)c3ccccc3)[C@]3(O)C[C@H](OC(=O)[C@H](O)[C@@H](NC(=O)c4ccccc4)c4ccccc4)C(C)=C([C@@H](OC(C)=O)C(=O)[C@]12C)C3(C)C [Example 1 (a), 7-O-methylthiomethylpaclitaxel]
IC50 [3]: 0.025 µM
IC50 [4]: 0.003 µM

CCOC(=O)O[C@@H](C(=O)O[C@H]1C[C@@]2(O)[C@@H](OC(=O)c3ccccc3)[C@@H]3[C@]4(OC(C)=O)CO[C@@H]4C[C@H](OCOP(=O)(O)O)[C@@]3(C)C(=O)[C@H](OC(C)=O)C(=C1C)C2(C)C)[C@@H](NC(=O)c1ccccc1)c1ccccc1 [Example 3, 2′-O-(ethoxycarbonyl)-7-O-phosphonooxymethylpaclitaxel]
cures (tumor-free on Day 80 post tumor implant) ([1]; oral, 160 mg/kg/adm., triethanolamine salt, of 8 treated mice): 6
cures (tumor-free on Day 80 post tumor implant) ([1]; oral, 240 mg/kg/adm., triethanolamine salt, of 8 treated mice): 7
max. T-C [6, 7]: 29.8 days
max. T-C ([6]; orally, 160 mg/kg/adm., triethanolamine salt): 20 days
T-C (M109 lung carcinoma [2]; [8]): 17 days
max. % T/C (M109 lung carcinoma [2]; [8]): 170%
T-C (M109 lung carcinoma [2]; [9]): 17 days
max. % T/C (M109 lung carcinoma [2]; [9]): 172%
T-C (M109 lung carcinoma [2]; [10]): 19 days
max. % T/C (M109 lung carcinoma [2]; [10]): 155%
T-C (M109 lung carcinoma [2]; [11]): 22.8 days
max. % T/C (M109 lung carcinoma [2]; [11]): 158%
Maximum Effect T-C (M109 lung carcinoma [2]; sc M109, sodium salt, i.v. once daily days 5-9, opt. dose 24 mg/kg/inj): 18.8 days
Maximum Effect % T/C (M109 lung carcinoma [2]; sc M109, sodium salt, i.v. once daily days 5-9 post-tumor implant, opt. dose 24 mg/kg/inj): 160%
IC50 [3]: 6.25 µM
IC50 [4]: 0.312 µM

CC(=O)O[C@H]1C(=O)[C@@]2(C)[C@H]([C@H](OC(=O)c3ccccc3)[C@]3(O)C[C@H](OC(=O)[C@H](OCOP(=O)(O)O)[C@@H](NC(=O)c4ccccc4)c4ccccc4)C(C)=C1C3(C)C)[C@]1(OC(C)=O)CO[C@@H]1C[C@@H]2O [Example 4, 2′-O-(Phosphonooxymethyl)paclitaxel]
IC50 [3]: > 6.3 µM
IC50 [4]: 0.0457 µM

CCOC(=O)O[C@@H](C(=O)O[C@H]1C[C@@]2(O)[C@@H](OC(=O)c3ccccc3)[C@@H]3[C@]4(OC(C)=O)CO[C@@H]4C[C@H](OCSC)[C@@]3(C)C(=O)[C@H](OC(C)=O)C(=C1C)C2(C)C)[C@@H](NC(=O)OC(C)(C)C)c1ccccc1 [Example 15, 3′-N-debenzoyl-3′-N-(t-butoxycarbonyl)-2′-O-ethyloxycarbonyl-7-O-methylthiomethylpaclitaxel]
T/C (mg/kg/inj.; schedule in days) (M109 lung carcinoma [5]; 8 mg/kg/inj.): 192 (8; d. 5 + 9) %

CC(=O)O[C@@]12CO[C@@H]1C[C@H](O)[C@@]1(C)C(=O)[C@H](O)C3=C(C)[C@@H](OC(=O)[C@H](O)[C@@H](NC(=O)OC(C)(C)C)c4ccccc4)C[C@@](O)([C@@H](OC(=O)c4ccccc4)[C@H]21)C3(C)C [Texotere ®, reference compound]
IC50 [3]: 0.213 µM
IC50 [4]: 0.004 µM

CC(=O)O[C@H]1C(=O)[C@@]2(C)[C@H]([C@H](OC(=O)c3ccccc3)[C@]3(O)C[C@H](OC(=O)[C@H](O)[C@@H](NC(=O)c4ccccc4)c4ccccc4)C(C)=C1C3(C)C)[C@]1(OC(C)=O)CO[C@@H]1C[C@@H]2O [paclitaxel, reference compound]
cures (tumor-free on Day 80 post tumor implant) ([1]; iv, 24 mg/kg/inj., of 7 treated mice): 6
cures (tumor-free on Day 80 post tumor implant) ([1]; iv, 36 mg/kg/inj., of 8 treated mice): 6
max. T-C [6, 7]: 26.3 days
activity in sc M109 model (M109 lung carcinoma [2]; another M109 experiment, dissolved in cremophore/ethanol/saline, 60/mg/kg/inj.): did not show activity
T-C (M109 lung carcinoma [2]; [12]): 14 days
max. % T/C (M109 lung carcinoma [2]; [12]): 167%
activity in sc M109 model (M109 lung carcinoma [2]; one M109 experiment, 160 mg/kg/adm. (highest tested), suspended in water and Tween 80): did not show activity
T-C (M109 lung carcinoma [2]; [13]): 13 days
max. % T/C (M109 lung carcinoma [2]; [13]): 132%
Maximum Effect T-C (M109 lung carcinoma [2]; sc M109, i.v. once daily days 4-8, opt. dose 24 mg/kg/inj (lower dose gave maximum delay in tumor growth)): 14 days
Maximum Effect % T/C (M109 lung carcinoma [2]; sc M109, i.v. once daily days 4-8, opt. dose 48 mg/kg/inj (higher dose gave maximum increase in lifespan)): 134%
Maximum Effect % T/C (M109 lung carcinoma [2]; [14]): 151%
Maximum Effect T-C (M109 lung carcinoma [2]; [14]): 15 days
IC50 [3]: 0.44 µM
IC50 [4]: 0.004 µM
